Measurements from patent US5504240A, “Borane-hydroxydialkylsulfide borates” (Aldrich Chemical Company, Inc., priority 1995, dated 1996).
In brackets after ≈: the same amount, converted by molar mass.

Experiment: not given
Conditions: prior art; cited from earlier work
In the case of [BH3-][S+]1CCOCC1 [Borane-1,4-thioxane], the solubility in water is given as “limited solubility in water”.
In the case of CSC [dimethyl sulfide], the solubility in water is listed as “not soluble in water”.

Experiment: solubility in water of hydroxysulfides (1 g per ... mL H2O)
Type: physicochemical
Conditions: mL H2O per 1 g hydroxysulfide
In the case of CC(C)CCSCCOCCOCCO [i-AmSCH2 CH2 OCH2 CH2 OCH2 CH2 OH, 2-2-2-(isoamylthio)ethoxy!ethoxy!ethanol], the solubility in water 1 g per ... mL H2O is reported as 100 mL.
With CC(C)CCSCCOCCO [i-AmSCH2 CH2 OCH2 CH2 OH, 2-2-(isoamylthio)ethoxy!ethanol] the “solubility in water 1 g per ... mL H2O” value was under 100 mL.
With CC(C)CCSCCO [i-AmSCH2 CH2 OH, 2-(isoamylthio)ethanol] the “solubility in water 1 g per ... mL H2O” value was under 100 mL.

Same assay, conditions: water
In the case of CCSCCOCCOCCO [Et--SCH2 CH2 OCH2 CH2 OCH2 CH2 OH, 2-2-2-(ethylthio)ethoxy!ethoxy!ethanol], the “solubility in water 1 g per ... mL H2O (in words)” value is reported as “miscible”.
In the case of CCSCCOCCO [EtSCH2 CH2 OCH2 CH2 OH, 2-2-(ethylthio)ethoxy!ethanol], the “solubility in water 1 g per ... mL H2O (in words)” value is reported as “miscible”.
With COCCSCCO [H3 COCH2 CH2 SCH2 CH2 OH, 2-(2-methoxyethylthio)ethanol] the “solubility in water 1 g per ... mL H2O (in words)” value was “miscible”.
For CC(C)(C)SCCOCCOCCO [t-BuSCH2 CH2 OCH2 CH2 OCH2 CH2 OH, 2-2-2-(tert-butylthio)ethoxy!ethoxy!ethanol], the “solubility in water 1 g per ... mL H2O (in words)” value was “miscible”.

Same assay, conditions: water; mL H2O per 1 g hydroxysulfide
CC(C)(C)SCCOCCO [t-BuSCH2 CH2 OCH2 CH2 OH, 2-2-(tert-butylthio)ethoxy!ethanol] gave a solubility of 66.7 mg/mL (≈ 374 mM).
With CC(C)(C)SCCO [t-BuSCH2 CH2 OH, 2-(tert-butylthio)ethanol] the solubility was 20 mg/mL (≈ 149 mM).

Experiment: active hydride analysis of borane adducts ([BH3], by hydrolysis and hydrogen evolved)
Type: physicochemical
Conditions: estimated by hydrolysis in water:glycerol:THF 1:1:1 and measuring hydrogen evolved
Method: Alternatively, borate esters were prepared from the reaction of borane-tetrahydrofuran with hydroxysulfide in molar ratio 1:3. Quantitative borate ester formation was confirmed by measuring the hydrogen evolved. Warming of the reaction mixture (60°-65° C.) is necessary to drive the reaction to completion. Generally speaking, the novel compounds of this invention are conveniently prepared in a straight-forward procedure by passing diborane into a neat borate ester at 0° C. in a bubbler provided with a stirrer. Excess diborane not absorbed by the borate ester is absorbed in a down-stream bubbler containing tetrahydrofuran over mercury and cooled in ice water. A mercury bubbler is connected to the exit. Diborane is passed into the ester until the concentration of excess borane in THF reaches approximately 1M. The borane-borate adduct is stirred overnight at room temperature prior to disconnecting the bubblers and analyzed for active hydride following the procedure described by Brown, H. C., Organic Syntheses via Boranes, J. Wiley: New York, 1975, p. 191, using a 2M hydrochloric acid-glycerol-water(2:1:1) hydrolysis solution.
A 100 ml one-neck, round-bottom flask equipped with a septum inlet, magnetic stirring bar and an adapter with a stopcock was charged with boron trifluoride diglyme (20 mmol). A 2M solution of sodium borohydride in triglyme (7.5 ml, 15 mmol) was added dropwise by means of a hypodermic syringe. Generation of diborane is smooth and the reaction is not exothermic. Generated diborane was passed through a bubbler containing sodium borohydride (0.1 g) in diglyme (5 ml) and a trap cooled to -78° C. was absorbed in neat 2-(tert-butylthio)ethanol (7.94 g, 60 mmol) at room temperature. After the addition was completed, the solution of borate was stirred at 50° C. for 15 min under a slow stream of nitrogen to produce the borate ester tris 2-(tert-butylthio)ethyl borate at room temperature. Escaped diborane was absorbed in the following bubbler containing tetrahydrofuran (10 ml) over mercury and cooled in ice water. A mercury bubbler was connected to the exit. Diborane was passed into the solution until the concentration of borane in the THF reached approximately 1M. The borane adduct, a colorless liquid, was analyzed for active hydride by a standard procedure using a water:glycerol:THF 1:1:1 hydrolyzing mixture. Concentration 6.4M, ^11 B NMR δ -26.03.
^b Estimated by hydrolysis in water: glycerol: THF 1:1:1 and measurin
With [BH3-][S+](CCOB(OCC[S+]([BH3-])C(C)(C)C)OCC[S+]([BH3-])C(C)(C)C)C(C)(C)C (stereo not drawn) [9a, Tris 2-(tert-Butylthio)ethyl!borate borane adduct (1:3)] the “[BH3]” value was 6.4 M.
In the case of [BH3-][S+](CCOB(OCC[S+]([BH3-])CCC(C)C)OCC[S+]([BH3-])CCC(C)C)CCC(C)C (stereo not drawn) [9b], the “[BH3]” value is reported as 5.9 M.
For [BH3-][S+](CC)CCOCCOB(OCCOCC[S+]([BH3-])CC)OCCOCC[S+]([BH3-])CC (stereo not drawn) [9c, tris 2-2-(Ethylthio)ethoxy!ethyl!borate borane adduct (1:3)], the “[BH3]” value was 5.7 M.
In the case of [BH3-][S+](CCOCCOB(OCCOCC[S+]([BH3-])C(C)(C)C)OCCOCC[S+]([BH3-])C(C)(C)C)C(C)(C)C (stereo not drawn) [9d, tris 2-2-(tert-Butylthio)ethoxy!ethyl!borate borane adduct (1:3)], the “[BH3]” value is reported as 5.5 M.
With [BH3-][S+](CCOCCOB(OCCOCC[S+]([BH3-])CCC(C)C)OCCOCC[S+]([BH3-])CCC(C)C)CCC(C)C (stereo not drawn) [9e, tris 2-2-(Isoamylthio)ethoxy!ethyl borate borane adduct (1:3)] the “[BH3]” value was 5.0 M.
In the case of [BH3-][S+](CC)CCOCCOCCOB(OCCOCCOCC[S+]([BH3-])CC)OCCOCCOCC[S+]([BH3-])CC (stereo not drawn) [9f, tris 2-2-2-(Ethylthio)ethoxy!ethoxy!ethyl!borate borane adduct (1:3)], the “[BH3]” value is reported as 5.2 M.
In the case of [BH3-][S+](CCOCCOCCOB(OCCOCCOCC[S+]([BH3-])C(C)(C)C)OCCOCCOCC[S+]([BH3-])C(C)(C)C)C(C)(C)C (stereo not drawn) [9g, tris 2-2-2-(tert-Butylthio)ethoxy!ethoxy!ethyl!borate borane adduct (1:3)], the “[BH3]” value is reported as 4.2 M.
In the case of [BH3-][S+](CCOCCOCCOB(OCCOCCOCC[S+]([BH3-])CCC(C)C)OCCOCCOCC[S+]([BH3-])CCC(C)C)CCC(C)C (stereo not drawn) [9h, tris 2-2-2-(Isoamylthio)ethoxy!ethoxy!ethyl!borate borane adduct (1:3)], the “[BH3]” value is reported as 4.0 M.
In the case of [BH3-][S+](CCOC)CCOB(OCC[S+]([BH3-])CCOC)OCC[S+]([BH3-])CCOC (stereo not drawn) [9i, tris 2-(2-Methoxyethylthio)ethyl!borate borane adduct (1:3)], the “[BH3]” value is reported as 6.0 M.

Experiment: not given
Conditions: prior art; cited from earlier work
Remark: another data set of the same source
For [BH3-][S+]1CCOCC1 [Borane-1,4-thioxane], the stability is given as “stable over prolonged periods”.
For [BH3-][S+](C)C [Borane-methyl sulfide], the stability is listed as “much more stable than borane-tetrahydrofuran”.
In the case of [BH3-][O+]1CCCC1 [Borane-tetrahydrofuran], the stability is listed as “unstable over a period of time”.

Experiment: not given
Conditions: in BH3; liquid; prior art; cited from earlier work
In the case of [BH3-][S+]1CCOCC1 [Borane-1,4-thioxane], the borane concentration is given as 8 M.
